Where “and” joins values, the source holds several entries; their conditions need not be identical. Identical values can stand only once.
Tested on: Aedes taeniorhyncus mosquitoes
Experiment: Outdoor screened cage mosquito capture test with CO2 collection jar and attractant
Type: in vivo
Conditions: for Average captured: average of three replicate tests; for Average captured / Total captured: 250 μL attractant + 500 cc/min CO2, 1000 mosquitoes per test; for Mosquitoes captured: single replicate test, 250 μL attractant on fibrous absorbent in CFG 6 jar with 500 cc/min CO2, 1000 mosquitoes introduced, after several hours; for Total captured: sum of three replicate tests; for Average increase in capture over control: versus CO2-only control (average 334 captured)
Method: The following tests were conducted by the United States Department of Agriculture in Florida in a large outdoor screened cage of a size of approximately 30 ft.×60 ft.×20 ft. (9.144×18.288×6.096 meters). Into approximately the center of the base of the cage was placed a CFG 6 Collection Jar of American Biophysics providing 500 cc/min CO2. Also placed in the CFG-6 Jar was a fibrous absorbent into which had been absorbed 250 μL of the test attractant compound. There were then introduced into the cage, from the periphery thereof, 1000 Aedes taeniorhyncus mosquitoes. After a period of several hours the collection jar was examined to determine the number of mosquitoes captured. As controls, similar tests were run with the CF 6 Collection jar without any attractant compound, i.e. with only CO2. Three replicate tests were run with each test attractant compound. The compound 1-octyn-3-ol was employed as the attractant compound of this invention and 1-octenol as an example of a prior art attractant.

Structure (SMILES) | Average captured | Mosquitoes captured | Total captured | Average increase in capture over control | more mosquitoes captured than the prior art 1-octen-3-ol attractant (compared with 1-octen-3-ol in the same test)
C=CC(O)CCCCC (stereo not drawn) [1-octen-3-ol, reference compound] | Average captured: 568 | 624 and 560 and 520 | 1704 | Average increase in capture over control: 234 | 
C#CC(O)CCCCC (stereo not drawn) [1-octyn-3-ol] | Average captured: 735 | 779 and 599 and 826 | 2204 | Average increase in capture over control: 401 | over 71%

Source: patent publication US6866858B2, “Method and compositions for attracting mosquitoes” (BioSensory, Inc., priority 2000, dated 2005)
